# Results: patent US7384934B2, “Piperazine substituted aryl benzodiazepines” (Eli Lilly and Company, priority 2002, dated 2008)
# Where a name gives a salt, the structure may show the parent alone.
# Tests used:
# Dopamine D2 receptor = biological target: T1, Dopamine D2 receptor (Homo sapiens, UniProt P14416); assay: Dopamine D2 receptor binding assay ([125I]iodospiperone); conditions: relative Ki scale of Table 5; read-out: Relative D2 Receptor Binding Affinity Ki
# T1 construct: purchased Receptor Biology (now owned by NEN) RBHD2CM
# Method: The assay buffers used are 50 mM Tris-HCl pH 7.4, 120 mM NaCl, 5 mM KCl, 5 mM MgCl2, 1 mM EDTA for the Dopamine D2s receptor binding assay. […] The membranes used are from Receptor Biology (now owned by NEN), Cat # RBHD2CM for the D2 receptor.
# Compounds are obtained as 10 mM stocks in 100% DMSO. They are diluted to 1 mM in 100% DMSO by adding 180 μL DMSO to 20 μL of stock in 96 well plates using a multidrop. […] This is done using a TECAN robot.
# The radioligand is diluted in assay buffer to provide 0.1 nM for the D2 assay. Each vial of membranes is diluted up to 92 mL in assay buffer. The final assay volume is 250 μL consisting of 210 μl of diluted membranes, 20 μL of compound or 10% DMSO for total binding, and 20 μL of diluted radioligand. The compounds are transferred from drug dilution plates into coming 96 well assay plates using a 96 well Multimek pipettor. Radioligand and membranes are added to assay plates using multidrop pipettors. Non-specific binding is determined in wells containing a final concentration of 5 μM haloperidol. The final drug concentration range in half logs is from 10 μM down to 0.1 nM.
# After addition of drug, membrane, and ligand, the plates are incubated for 2 hours at room temperature. During this time 96 well Millipore filter plates (MAFBNOB50) are soaked for a least 30 minutes with 200 μL per well of 0.5% polyethyleneimine.
# The 0.5% PEI is removed from filterplate wells using a TiterTek MAP aspirator and 200 μL of the incubation mixture is transferred from the incubation plate to the filterplate after mixing. This transfer is done using the 96 tip Mutimek pipettor. After transfer to the filterplate filterplates are extracted and ished twice with 220 μL per well of cold buffer on the MAP aspirator. The peel away bottoms are removed from the filterplates and 60 μL per well of microscint 20 scintillation fluid is added per well using a multidrop. […]
# T1 sequence (P14416 1-414 isoform P14416-2): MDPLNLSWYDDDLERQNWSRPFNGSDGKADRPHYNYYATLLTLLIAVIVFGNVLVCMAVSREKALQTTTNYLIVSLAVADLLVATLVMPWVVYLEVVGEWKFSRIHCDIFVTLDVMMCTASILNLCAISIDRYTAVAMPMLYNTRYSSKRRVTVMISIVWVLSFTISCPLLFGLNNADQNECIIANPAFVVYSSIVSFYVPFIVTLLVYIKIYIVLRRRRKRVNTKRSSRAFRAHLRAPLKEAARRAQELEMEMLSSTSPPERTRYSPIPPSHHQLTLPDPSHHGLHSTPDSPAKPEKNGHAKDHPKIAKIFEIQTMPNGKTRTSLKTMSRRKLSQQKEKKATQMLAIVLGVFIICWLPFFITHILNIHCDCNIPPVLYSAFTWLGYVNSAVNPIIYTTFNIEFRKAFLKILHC
SMILES,Ki (Dopamine D2 receptor),melting point
"COCC[C@H]1CN(C2=Nc3ccccc3Nc3ccc(C)cc32)CCN1C [Example 216, (S)-2-Methyl-11-[3-(2-methoxy-ethyl)-4-methyl-piperazin-1-yl]-5H-dibenzo[b,e][1,4]diazepine]",100 to 1000 nM,60 °C (dec.)
"COCC[C@H]1CN(C2=Nc3ccccc3Nc3ccc(C(F)(F)F)cc32)CCN1 [Example 202, (S)-2-Trifluoromethyl-11-[3-(2-methoxy-ethyl)-piperazin-1-yl]-5H-dibenzo[b,e][1,4]diazepine]",,71 to 82 °C
"CCc1cc2c(s1)Nc1cc(F)ccc1N=C2N1CCN(C)[C@@H](CCOC)C1 (as salt: hydrochloride) [Example 280, (S)-6-Fluoro-10-[3-(2-methoxy-ethyl)-4-methyl-piperazin-1-yl]-2-ethyl-4H-3-thia-4,9-diaza-benzo[f]azulene dihydrochloride]",,186 to 188 °C
"Cc1cc2c(s1)Nc1ccccc1N=C2N1CCN[C@@H](CCO)C1.Cl.Cl [Example 240, (S)-2-[4-(2-Methyl-4H-3-thia-4,9-diazabenzo[f]azulene-10-yl)-piperazin-2-yl]ethanol dihydrochloride]",10 to 100 nM,> 250 °C (dec.)
"COCC[C@H]1CN(C2=Nc3cc(Cl)ccc3Nc3sc(C)cc32)CCN1C (as salt: hydrochloride) [Example 292, (S)-7-Chloro-10-[3-(2-methoxy-ethyl)-4-methyl-piperazin-1-yl]-2-methyl-4H-3-thia-4,9-diaza-benzo[f]azulene dihydrochloride]",,200 to 202 °C
"COCC[C@H]1CN(C2=Nc3ccccc3Nc3ccc(C(C)C)cc32)CCN1 [Example 200, (S)-2-Isopropyl-11-[3-(2-methoxy-ethyl)-piperazin-1-yl]-5H-dibenzo[b,e][1,4]diazepine]",,158 to 160 °C
CCOCC[C@H]1CN(C2=Nc3cc(F)ccc3Nc3sc(C)cc32)CCN1C.Cl.Cl,,193 to 195 °C
COCC[C@H]1CN(C2=Nc3cc(F)ccc3Nc3sc(C)cc32)CCN1C.Cl,,192 to 194 °C
"Cc1cc2c(s1)Nc1ccccc1N=C2N1CCN[C@H](CCO)C1.Cl.Cl [Example 241, (R)-2-[4-(2-Methyl-4H-3-thia-4,9-diazabenzo[f]azulene-10-yl)-piperazin-2-yl]ethanol dihydrochloride]",100 to 1000 nM,> 250 °C (dec.)
"COCC[C@H]1CN(C2=Nc3ccc(Cl)cc3Nc3sc(C)cc32)CCN1C (as salt: hydrochloride) [Example 291, (S)-6-Chloro-10-[3-(2-methoxy-ethyl)-4-methyl-piperazin-1-yl]-2-methyl-4H-3-thia-4,9-diaza-benzo[f]azulene dihydrochloride]",,174 to 176 °C
"COCC[C@H]1CN(C2=Nc3ccccc3Nc3ccc(C)cc32)CCN1 [Example 199, (S)-2-Methyl-11-[3-(2-methoxy-ethyl)-piperazin-1-yl]-5H-dibenzo[b,e][1,4]diazepine]",100 to 1000 nM,63 °C (dec.)
COCC[C@H]1CN(C2=Nc3ccccc3Nc3ccc(C(C)C)cc32)CCN1C (as salt: hydrochloride),,210 °C
"Cc1cc2c(s1)Nc1ccccc1N=C2N1CCN(C)[C@@H](COCc2ccccc2)C1 [Example 270, (R)-10-(3-Benzyloxymethyl-4-methyl-piperazin-1-yl)-2-methyl-4H-3-thia-4,9-diaza-benzo[f]azulene]",,55 to 65 °C
"COCC[C@H]1CN(C2=Nc3cc(Cl)ccc3Nc3sc(C)cc32)CCN1 [Example 258, (S)-7-Chloro-10-[3-(2-methoxy-ethyl)-piperazin-1-yl]-2-methyl-4H-3-thia-4,9-diazabenzo[f]azulene]",,179 to 183 °C (dec.)
"COCC[C@H]1CN(C2=Nc3ccc(F)cc3Nc3sc(C)cc32)CCN1 (as salt: hydrochloride) [Example 248b, (S)-6-Fluoro-10-[3-(2-methoxy-ethyl)-piperazin-1-yl]-2-methyl-4H-3-thia-4,9-diaza-benzo[f]azulene dihydrochloride]",,90 °C
COCC[C@H]1CN(C2=Nc3ccccc3Nc3ccc(Cl)cc32)CCN1C (as salt: hydrochloride),,205 °C
CCOCC[C@H]1CN(C2=Nc3ccc(F)cc3Nc3sc(C)cc32)CCN1C.Cl,,180 to 182 °C
